Measured values taken from the METLIN SMRT retention time set (Domingo-Almenara et al. 2019).

Test: gradient 5% acetonitrile 3 min, to 50% in 2 min, to 85% in 15 min, held 3 min, 100 µL/min
Conditions: column: Zorbax Extend-C18 2.1 x 50 mm; eluents: water / acetonitrile, 0.1% formic acid
How it was run: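 Over 3 months, pure standards in mixtures of ~100 molecules were run by HPLC coupled to a quadrupole time-of-flight mass spectrometer in positive and negative ionization mode. The column was a Zorbax Extend-C18 (2.1 × 50 mm, 1.8 μm) at 100 μL/min, eluted with water and acetonitrile each holding 0.1% formic acid, with 40 μL dead and 900 μL dwell volumes. Retention time was determined from adduct peaks chosen by software and checked manually.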

Structure (SMILES)	RP-LC retention time [s]
COCC(=O)NC1CCC12CCN(S(=O)(=O)C(C)C)CC2 (configuration not stated)	682
CCCn1cc(S(=O)(=O)NCc2ccc(C)cc2)c2cccnc21	951
O=C(CSc1ccc(N2CCCC(C(=O)NC3CC3)C2)nn1)NCc1ccccc1Cl (configuration not stated)	635
Cc1ccc(NC(=O)Cn2c(=O)c(CCC(=O)NC3CCCC3)nc3ccccc32)cc1C	863
CC(C)(C)c1ccc(OCCCC(=O)Nc2nc(-c3ccccc3)cs2)cc1	1300
Cc1ccccc1NC(=O)N1CCCC(Cn2c(C3CC3)nc3cccnc32)C1 (configuration not stated)	656
O=C(c1ccsc1)N1CCCn2nc(-c3ccc(Cl)cc3)cc2C1	945
CCCn1c(=O)c(C)nc2cc(-c3noc(-c4cccs4)n3)ccc21	1120
O=C(c1ccsc1)N1CCN(c2nnc3ccc(C(F)(F)F)cn23)CC1	718
Cc1cc(C)n(CCC(=O)N[C@@H]2CN(S(C)(=O)=O)C[C@H]2CN(C)C)n1	564
CCC(=O)Nc1ccc(SCC(=O)Nc2ccc(F)c(Cl)c2)nn1	772
Cc1ccnc(N2CCC(C(=O)Nc3ccc(Br)cc3)CC2)n1	784
Cc1cccc(N2CCN(C(=O)c3cn4c(n3)CCCC4)CC2)c1C	690
O=C(NCCn1nnc2cc(C(=O)N3CCCC3)ccc21)Nc1ccc(F)c(Cl)c1	704
O=c1ccc(-c2nc(-c3cccc(Cl)c3)no2)cn1Cc1ccncc1	722
Cc1ccc2[nH]cc(CCNC(=O)c3ccc(N4CCCC4)c(S(=O)(=O)N4CCCC4)c3)c2c1	998
Cc1nn(-c2ccccc2)c(C)c1S(=O)(=O)N1CCC(C(=O)Nc2ccc(Cl)cc2F)CC1	1070
Fc1ccc(F)c(CN2CC(Oc3ccc(-c4noc(-c5ccncc5)n4)cc3)C2)c1	726
CC1CCCN(c2nn(CC(=O)Nc3ccc(C(F)(F)F)cc3)c(=O)c3ccccc23)C1 (configuration not stated)	1170
Cc1ccc(NC(=O)C2CCCN(S(=O)(=O)c3c[nH]c(C(=O)N4CCCC4)c3)C2)c(C)c1 (configuration not stated)	814
O=C(Nc1cc(-c2ccccn2)no1)C1CCCCC1	827
COc1ccc(N2CCN(CCNC(=O)c3cccs3)CC2)cc1	557

Structure (SMILES)	RP-LC retention time [s]
O=C(Nc1ccc(F)c(F)c1)c1c(O)c2cccnc2n(Cc2ccccc2)c1=O	1140
COCCCNC(=O)NCc1ccc2c(c1)N(C(=O)c1ccccc1)CC2	742
COc1ccc(-c2csc3ncnc(SCc4c(C)noc4C)c23)cc1	1030
O=C(Nc1c(-c2ccc(F)cc2)nc2ccccn12)c1ccccc1F	639
O=C1CC(c2noc(CN3CCN(c4ccccn4)CC3)n2)CN1c1ccc(F)cc1 (configuration not stated)	576
O=C(CS(=O)(=O)c1cn(Cc2cccc(F)c2)c2ccccc12)Nc1ccc(F)cc1	918
COC(=O)c1cccc(C(=O)Nc2cc(Cl)ccc2C)n1	999
Cc1ccccc1CN1CCN(CC(=O)NCc2ccc3c(c2)OCO3)C(=O)C1=O	715
O=C(CC1C(=O)NCCN1C(=O)CN1CCN(c2ccccn2)CC1)Nc1ccccc1 (configuration not stated)	565
O=C(NCc1ccco1)c1cnn2c(-c3ccc(Cl)cc3)ccnc12	945
COc1ccccc1-c1nc2n(n1)C1(CCCCC1)[C@@H]1CCCC[C@@H]1N2C(=O)c1ccco1	1200
Cc1cc(C)cc(N2CCC(NC(=O)c3cccc(C#N)c3)C2=O)c1 (configuration not stated)	863
CC(C)C(=O)N1CCCCCCNC(=O)[C@@H]2CCCC[C@@H]21	777
COc1ccc2c(c1)C1(CCN(S(=O)(=O)c3cccc(Cl)c3)C1)C(=O)N2C (configuration not stated)	978
Cc1cccc(-c2ncccc2CNS(=O)(=O)Cc2ccc(Cl)cc2)c1	765
CN1C2CCC1[C@@H](COC(=O)c1ccccc1)[C@@H](O)C2 (some centres not stated)	636
O=C(NCCn1c(=O)n(Cc2ccc(F)cc2)c2cccnc21)c1nccc2ccccc12	840
CCCn1c(C)cnc1C1CN(S(=O)(=O)c2ccccc2Cl)C1	660
COc1ccc(-c2noc(-c3ccc(N4CCN(c5ccccn5)CC4)nc3)n2)cc1	764
CN1CCN(CCNC(=O)CC2CCN(C(=O)c3cc4cc(Cl)ccc4[nH]3)CC2)CC1	618
CN1C(=O)CCC2(CNC(=O)Nc3ccccc3)CCC=C12 (configuration not stated)	721
CCCn1cc(C(=O)NCc2cccc(C)c2)c(S(=O)(=O)N2CCC(C)CC2)n1	1130

Structure (SMILES)	RP-LC retention time [s]
Cc1ccc(-c2cc3c4nnc(SCC(=O)Nc5ccc(F)cc5Cl)n4ccn3n2)cc1C	1010
Cn1cc(C2=CCN(S(=O)(=O)c3cccc(C(F)(F)F)c3)CC2)c2cccnc21	1050
CCNC(=O)N1CCCC(Cc2nncn2C(C)C)C1 (configuration not stated)	494
O=C(CC1=C2CCCCC2NC1=O)Nc1cccc(F)c1 (configuration not stated)	719
Cc1nc2nc(SCC(=O)NCCCN3CCOCC3)nn2c(C)c1Cc1ccccc1	622
Cc1ccc(NC(=O)C2CCN(S(=O)(=O)c3c(C)[nH]c(C)c3C(=O)N3CCCC3)CC2)cc1F	753
CC(=O)[C@H]1CCC2C3CC[C@H]4C[C@H](O)CC[C@]4(C)C3CC[C@@]21C (some centres not stated)	1270
CCNC(=O)NC1CCN(c2ccc(C)c(C)c2)C1=O (configuration not stated)	690
CCOC(=O)C1CCN(C(=O)Cn2nc3cc(-c4ccccc4)nc(C)n3c2=O)CC1	858
Cc1sc(C)c(S(=O)(=O)NC2CC2)c1-c1cc(C(F)(F)F)on1	1070
Cc1ccc(C)c(NC(=O)Cn2c(C(C)C)nc3c(c2=O)CCN(Cc2ccccc2)C3)c1	734
COc1ccc(-c2n[nH]c3c2C(c2ccc(O)cc2)N(C)C3=O)cc1 (configuration not stated)	667
CCCCN1C(=O)c2ccccc2C(C(=O)NCc2ccncc2)C12CCCCC2 (configuration not stated)	662
Cc1ccc(CNC(=O)N2C[C@@H](F)C[C@H]2C(=O)N2CCc3ccccc3C2)cc1	887
CCN(CC)C(=O)c1cc(C)nc2c1c(=O)n(Cc1nc(-c3ccccc3)oc1C)c(=O)n2C	996
COc1ccc(-c2nnc(N3CCC(C(=O)N4CCOCC4)CC3)o2)cc1	664
COCc1nncn1C1CCN(S(=O)(=O)c2ccc(C)cc2C)CC1	743
CCOC(=O)c1c(-c2cccs2)csc1NC(=O)CSc1ncn[nH]1	815
O=C(Nc1cnc(N2CCCC2)nc1)c1ccc(Br)cc1	796
CCOc1ccccc1NC(=O)Nc1ccc(CC(=O)NCC(F)(F)F)cc1	815
CCCNC(=O)C1CCN(S(C)(=O)=O)c2ccccc2O1 (configuration not stated)	708
CSc1nc(NCCN(C)C)c(C#N)c(-c2ccccc2)n1	642

Structure (SMILES)	RP-LC retention time [s]
O=C(NC1CCCCC1)N1CCC(c2noc(-c3cccnc3)n2)C1 (configuration not stated)	749
Cc1nc2cc3c(cc2n1CC(=O)NCc1ccccc1Cl)OCCO3	645
COc1cccc(CNC(=O)C2(C)CCCN(C(=O)Nc3cccc(F)c3)C2)c1 (configuration not stated)	872
O=C(Nc1ccc2c(c1)OCCO2)c1cccc(-c2cnc(N3CCCC3)nc2)c1	845
O=c1c2nnc3c(-c4ccc(F)cc4)cnn3c2ccn1CCc1c[nH]c2ccc(F)cc12	950
Cc1ccc2c(Nc3ccc(CC(=O)O)cc3)c(C(=O)N3CCCCCC3)cnc2n1	595
COc1ccccc1-c1nc2cnccn2c1NCCC(=O)NC1CCCC1	618
COc1ccc(-c2noc(C3CCCN3C(=O)c3cc4ccccc4[nH]3)n2)cc1OC (configuration not stated)	971
O=C(Cc1cccc(F)c1)N1CCCC1c1nc(-c2ccccc2Cl)no1 (configuration not stated)	1200
CCc1ccc(NC(=O)Cn2cnc3nc(N4CCCC(C(=O)NC)C4)sc3c2=O)cc1 (configuration not stated)	694
O=C(NCCc1ccccc1)N1CCc2nc(-c3ccc(F)cc3)ncc2C1	900
COc1ccc(CCc2nc3nccc(-c4cc(OC)c(OC)c(OC)c4)n3n2)cc1	895
O=C1CCC(C(=O)N2CCC(c3c[nH]c4ccccc34)(c3c[nH]c4ccccc34)CC2)N1 (configuration not stated)	711
Cc1ccc(C)c(C(=O)Nc2cc(-c3cccnc3)no2)c1	585
Cc1ccc(N2CC(c3nc(-c4ccc5c(c4)nc(C)c(=O)n5C)no3)CC2=O)cc1 (configuration not stated)	837
CCOc1ccc(Nc2nc(-c3nnn(-c4ccc(OCC)cc4)c3C)ns2)cc1	1130
O=C1c2ccccc2C(=O)c2c1ccc(C(=O)N1CCN(c3ccccn3)CC1)c2NCCO	616
O=S(=O)(c1ccccc1Cl)N1CC(F)(F)C[C@H]1CN1CCc2ccccc2C1	760
CCC(=O)N1CCc2cc(N3CC(C(=O)N4CCN(C(C)C)CC4)CC3=O)ccc21 (configuration not stated)	580
O=C(C1CCN(c2nc3ccc(-c4ccc(F)cc4)nc3s2)CC1)N1CCCCC1	1080
CC(=O)c1ccc(NC(=O)c2cnc(-c3ccc(C(F)(F)F)cc3)nc2C)cc1	1030
